Assay results: publication PMC9254247, “Dual-sensitive antibacterial peptide nanoparticles prevent dental caries” (Theranostics, 2022)
No end group written: not given here.

Tests used:
[1] = test system: S. mutans UA159 infection of teeth; assay: In vivo rodent model simulating severe childhood caries; design: species or system Sprague-Dawley rat pups; settings: for body weights vs control: after 35 days of topical treatment, 100 μM; for H&E staining of gingival, palatal and gastric tissues: caries study, Figure S12
Source text: For each patient, written permission form was reviewed and signed. […]
In vivo rodent model simulating severe childhood caries. All the animal studies were approved by the Institutional Animal Care and Use Committee (IACUC) of Hunan Normal University, and the National Institutes of Health guidelines for the performance of animal experiments were followed. 15 days -old female Sprague– Dawley rat pups were purchased with their dams from Slac & Jingda Corporation of laboratory animals, Changsha, China. All animals should be checked for the pathogen […]
infections especially for the S.mutans by plating oral swabs on mitis salivarius agar plus bacitracin. The animals were then infected by mouth with S. mutans UA159 (mid-logarithmic) 4 times (once a day) by pipetting 0.1 mL of a cell suspension containing 2 × 10^8 colony-forming units into their mouths. When the infection was confirmed, all the pups were randomly placed into three treatment groups, and their teeth were treated topically once a day for a total 35 days using the swabs plus modified syringe. The concentration of CHX and pHly -1 NPs was 100 μM and the volume was 300 μ L. The three treatment groups were: (1) control (PBS, pH 4.5); (2) CHX (100 μ M, dissolve in PBS, pH 4.5); (3) pHly -1 NPs (100 μM, dissolve in PBS, pH 4.5). Each group was provided the National Institutes of Health cariogenic diet 2000 and water containing 5% sucrose. After 35 days of treatment, all animals were sacrificed and jaws were collected according the literature . Determination of caries score of the jaws was performed by a calibrated examiner who was blind for the study by using codified samples according to Lar son’s modification of Keyes’ system 11 -13. […]
The fragments were washed thoroughly, then digested and centrifuged to obtain cell pellet. The resulting pellet was resuspended in ice-cold 70 % BME for incubating 15 min and then the organoid medium was added. The composition of oral and gastric organoid medium was as follows:
Human oral organoid medium contains Advanced Dulbecco’s Modified Eagle’s Medium/F12 supplemented with penicillin/streptomycin, 10 mM HEPES, 2 mM GlutaMAX, 1×B27 supplement (Life Technologies), 1.25 mM N -acetyl-l-cysteine (Sigma-Aldrich), 10 mM Nicotinamide (Sigma-Aldrich), 50 ng/mL human EGF (PeproTech), 500 nM A83- 01(Tocris Bioscience), 10 ng/mL human FGF10
(PeproTech), 5 ng/mL human FGF2 (PeproTech), 1 μM Prostaglandin E2 (Tocris Bioscience), 3 μM CHIR 99021 (Sigma -Aldrich), 1μM Foskolin, 100 μg/mL […]
(§1) Human gastric organoid medium contains Advanced Dulbecco’s Modified Eagle’s […]
GlutaMAX,1×B27 supplement (Life Technologies), 50 ng/mL human EGF
(PeproTech), 200 ng/mL human FGF10 (PeproTech), 1.25 mM N-acetyl-l-cysteine (Sigma-Aldrich), 10 nM Gastin-l, 500 nM A83- 01 (Tocris Bioscience), 10 μM […]
Prostaglandin E2 (Tocris Bioscience), 100 ng/mL human recombinant IGF-1 (Bio Legend), 3 μM CHIR 99021 (Sigma-Aldrich), 10 mM Nicotinamide (Sigma-Aldrich).
For the organoid toxicity assay, organoids were digested into single cells. After centrifugation and washing, single cells were plated in 70 % BME and then added to 96-well plates (5 μ L/well). After that, 100 μ L organoid medium was added into the […]

[2] = test system: normal oral organoids; assay type: cell-based, human; settings: 1 day
Source text: (§2) Toxicity tests on human organoid s. Organoids have been established in our lab.
(§3) Ethical approval of the study and the written consent/permission forms were obtained from Institutional Review Board (IRB) at Hunan N ormal University before the study commencement. For each patient, written permission form was reviewed and signed by themselves. According to the literature14,15, briefly, the tissue samples obtained from patients were removed excess fat or muscle tissues and cut into small fragments.
(§4) The fragments were washed thoroughly, then digested and centrifuged to obtain cell pellet. The resulting pellet was resuspended in ice-cold 70 % BME for incubating 15 min and then the organoid medium was added. The composition of oral and gastric organoid medium was as follows: […]
(§5) 50- AGGGTATCTAATCCT-30) and the final amplicon was quantified using a Qubit dsDNA assay kit (Life Technologies, California, United States). […]
(§6) The operational taxonomic units (OTUs) were generated using Vsearch software with a 97% similarity cutoff. The QIIME package and the RDP classifier (confidence threshold was 70%) were performed to select the representative read of each OTU and annotate and BLAST against the Silva database Version 123, respectively. […]

[3] = test system: normal oral and gastric organoids; assay type: cell-based, human
Source text: as §2, §3, §4, §5, §6

[4] = test system: oral microbiota and gingival, palatal and gastric tissues; assay type: in vivo, Kuming mice; settings: for H&E staining of gingival, palatal and gastric tissues / oral microbiota diversity / ecological balance (PCoA, Chao, Shannon) / abundance of top three phyla (Bacteroidetes, Firmicutes, Proteobacteria): 0.2%, 100 μL, once per day for 7 days; for oral microbiota diversity / ecological balance (PCoA, Chao, Shannon) / abundance of top three phyla (Bacteroidetes, Firmicutes, Proteobacteria): n = 8; for abundance of top three phyla (Bacteroidetes, Firmicutes, Proteobacteria): saliva on 8th day; for tooth staining: data not shown
Source text: Toxicity tests on mice. Furthermore, 35- 40 g fe male Kuming mice were also purchased from Slac & Jingda Corporation of laboratory animals, Changsha, China to systematically evaluate the toxicity of pHly -1 NPs to oral microflora and soft tissue in mice. All animals were randomly placed into three treatment groups, and pHly-1 NPs or CHX in aqueous solution was gradually added to mice mouth once a day for seven days. Considering the concentration of CHX used in clinic is usually 0.2 %, we determined that the concentration of the pHly -1 NPs rinsed mouse’s mouth is also 0.2 % and the volume was 100 μ L. At the 8th day, saliva was drawn for oral microbiome analysis, and gingival, palatal and gastric tissues were collected for histopathological […]
Oral flora 16S rRNA sequencing. Total genomic DNA of oral samples was extracted in OE Biotech Company (Shanghai, China) using a QIAamp DNA Stool Mini Kit (Qiagen, Germantown, MD, USA). Bacterial DNA was amplified with primers […]
targeting the V3- V4 regions (50- TACGGRAGGCAGCAG- 30,
50- AGGGTATCTAATCCT-30) and the final amplicon was quantified using a Qubit dsDNA assay kit (Life Technologies, California, United States). Equal amounts of purified amplicons were pooled for subsequent sequencing by the Illumina Nova 6000 platform (Illumina, USA) (Shanghai Oebiotech Co., Ltd., Shanghai, China). The raw data were treated and processed using the QIIME software package (version 1.8.0).
The operational taxonomic units (OTUs) were generated using Vsearch software with a 97% similarity cutoff. The QIIME package and the RDP classifier (confidence threshold was 70%) were performed to select the representative read of each OTU and annotate and BLAST against the Silva database Version 123, respectively.
Furthermore, the microbial diversity in oral samples was estimated by using the alpha diversity that include Chao1 and Shannon index. The bacterial diversity between groups was compared using the Wilcoxon rank sum test.

[5] = test system: normal gastric organoids; assay type: cell-based, human; settings: 1 day
Source text: as §2, §3, §4, §1
GlutaMAX,1×B27 supplement (Life Technologies), 50 ng/mL human EGF […]
as §5, §6

Row | Compound | body weights vs control [1] | H&E staining of gingival, palatal and gastric tissues [1] | caries lesions on sulcal and smooth surfaces (Keyes' scoring, Larson's modification) vs control ([1]; topical 100 μM, 300 μL, pH 4.5, once per day, 35 days, n = 8) | oral organoid death ([2]; 15.6 μM) | concentration inducing organoid death or decreased viability [3] | H&E staining of gingival, palatal and gastric tissues [4] | oral microbiota diversity / ecological balance (PCoA, Chao, Shannon) [4] | abundance of top three phyla (Bacteroidetes, Firmicutes, Proteobacteria) [4] | tooth staining [4] | gastric organoids death ([5]; 31.25 μM) | effect on oral organoid viability ([2]; 500 μM) | effect on both organoids [3] | effect on gastric organoid viability ([5]; 500 μM)
1 | [H]/N=C(\N/C(=N/[H])NCCCCCCNC(=N)NC(=N)Nc1ccc(Cl)cc1)Nc1ccc(Cl)cc1 [CHX, chlorhexidine] | No significant difference in body weights | no detectable signals for the harmful effect | alleviated severe lesions | about 60% | ~ 20 μM | epithelial cell shedding and structural damage of gastric tissue | reduced the oral microbiota diversity | significantly increased the abundance of Firmicutes species | occasionally present | about 40% |  |  | 
2 | KIWFHAMHIIAHFIAHQHLHQHL-NH2 [pHly-1 NPs] | No significant difference in body weights | no detectable signals for the harmful effect |  |  |  | no visible signs of harmful effects | did not disrupt the ecological balance of the microbiota | did not affect their abundance | not observed |  | no apparent viability decrease | no apparent effect | no obvious effect
